pEC50: −log10 of the molar value.
Experiments:
[1] = system: primary human chondrocyte pellet cultures; test: Chondrogenesis activity assay in primary human chondrocyte pellet cultures (proteoglycan (aggrecan) induction, Blyscan assay); format: cell-based; settings: for pEC50: 336 h, proteoglycan (aggrecan) induction, primary human chondrocyte pellets, 2 weeks culture; for Emax: Homo sapiens, Chondrocyte, maximum percent proteoglycan (aggrecan) induction relative to the internal reference compound at 10 μM
Method: B) Chondrogenesis Activity Assay in Primary Human Chondrocyte Pellet Cultures
In this assay human articular chondrocytes are harvested by enzymatic digestion from articular cartilage and passaged several times to dedifferentiate the chondrocytes and to propagate the cells. Cells are cultured as cell pellets in the presence of the compounds of the invention over 2 weeks, and the chondrogenic differentiation is quantified by the production of the chondrogenic marker aggrecan (proteoglycan).
In detail, primary chondrocytes were harvested by enzymatic digestion from cartilage of osteoarthritis patients undergoing knee joint replacement surgery, and cultured in vitro. Cells were passaged one or two times and aliquots were cryopreserved. To initiate chondrogenesis experiments, cell aliquots were thawn, cultured in Chondrocyte Growth Medium (CGM, Lonza, #CC-3216) and passaged twice to further propagate and dedifferentiate cells. Pellet cultures were initiated by seeding 2.5×10E5 cells per well into a 96-well deep well plate in 600 μl chondrocyte differentiation medium consisting of Dulbecco's Modified Eagle Medium (DMEM, Invitrogen, #41966), 1×ITS-solution (Insulin/Transferrin/sodium selenite; 100× solution: Invitrogen, #51500056), 5 μg/mL linoleic acid (Sigma, #L1012-1G), 1× nonessential amino acids (100× solution: Invitrogen, #11140); 10 nM Dexamethasone, 2 ng/ml TGF-β1 (transforming growth factor β1) and 10 μg/ml ascorbic acid. Cells were spun to pellets by centrifugation (10 min, 400×g). Test compounds dissolved in DMSO were added to yield increasing compound concentrations, typically from 40 nM to 10 μM, and a final DMSO concentration of 0.1%, and the cell pellets cultured at 37° C., and 5% CO2 for 2 weeks. On each 96-well plate, control wells containing no test compound but the same concentration of DMSO, i.e. untreated cells, were included and used as reference for the determination of the effect of the test compounds on the cells, and wells containing an internal reference compound at a concentration of 10 μM were included and used as positive control and for standardizing the results. Chondrocyte differentiation medium and the compounds were exchanged twice weekly until harvest of the pellets.
For harvest of the pellets, medium was removed and the pellet was homogenized by enzymatic digestion. 100 μl of protease solution containing 0.4 mg/ml papain, 50 mM sodium phosphate, 4 mM EDTA and 0.48 mg/ml L-cysteine was added to the pellet in each well of a 96-well plate, the plate was sealed with a plate sealer foil (SILVERseal, Greiner Bio-One) and incubated for 4 to 6 hours at 65° C. with agitation.
The concentration of proteoglycan (aggrecan) was determined by quantification of the sulfated glycosaminoglycan side chains of aggrecan using the Blyscan assay (Kit from Biocolor). Aliquots of the papain-digest were transferred to 400 μl of Blyscan dye solution and incubated at room temperature for 45 min with agitation (1200 rpm). The mixture was centrifuged at 3760×g for 45 min, the supernatant was discarded, and the stained pellet was redissolved in 400 μl of Blyscan dissociation reagent by rotation until the precipitate completely resolved. Optical density was measured at 656 nm using a Tecan Saphire2 instrument, and the amount of proteoglycan determined against a standard curve with chondroitin-4-sulfate.
Induction of proteoglycan (aggrecan) was calculated for each compound concentration relative to the control (untreated cells, i.e. no test compound added), and an EC50 value (effective concentration 50 (in μM (micromollliter)), i.e. the compound concentration at which the effect of the compound on proteoglycan (aggrecan) induction reaches 50% of the maximum induction) was calculated using a sigmoidal signal fit procedure. […]

[2] = system: ATDC5 cells; test: Chondrogenesis activity assay in ATDC5 cells (collagen type II induction, immunofluorescence); format: cell-based, mouse; settings: Mus musculus; for pEC50: collagen type II induction in ATDC5 cells, concentration reaching 50% of maximum induction; for Emax: maximum percent induction of collagen type II relative to internal reference compound at 10 μM, ATDC5 cells
Procedure, shortened: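 Mouse ATDC5 cells in insulin (10 μg/ml)-containing DMEM/F12 differentiation medium with 5% FCS were exposed to compound, typically 40 nM–10 μM at 0.1% DMSO, for 4 days at 37 °C. Intracellular collagen type II was quantified by Alexa Fluor 488 immunostaining with high-content imaging, relative to DMSO and a 10 μM reference compound.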

Compound | pEC50 [1] | Emax [1] [%] | pEC50 [2] | Emax [2] [%]
Cc1nccc2c1[nH]c1c(-c3ccc(OCCn4ccnc4)cc3)cc(Cl)cc12 [Example 194, 6-Chloro-8-[4-(2-imidazol-1-yl-ethoxy)-phenyl]-1-methyl-9H-pyrido[3,4-b]indole] | 6.08 | 100 to 200 | 6.85 | > 80
CCn1c2c(-c3cnn(C)c3)cc(Br)cc2c2cc(C)nc(C)c21 [Example 21, 6-Bromo-9-ethyl-1,3-dimethyl-8-(1-methyl-1H-pyrazol-4-yl)-9H-pyrido[3,4-b]indole] | 5.37 | > 200 | < 5.48 | 20 to 50
CCn1c2c(-c3ccnn3C)cc(Cl)cc2c2ccnc(C)c21 [Example 19, 6-Chloro-9-ethyl-1-methyl-8-(2-methyl-2H-pyrazol-3-yl)-9H-pyrido[3,4-b]indole] | 5.16 | 40 to 100 | < 5.00 | 50 to 80
COC(=O)c1cc2c([nH]c3c(-c4ccc(Cl)nc4Cl)cc(Cl)cc32)c(C)n1 [Example 117, 6-Chloro-8-(2,6-dichloro-pyridin-3-yl)-1-methyl-9H-pyrido[3,4-b]indole-3-carboxylic acid methyl ester] | 4.57 | < 40 | < 5.00 | < 20
CCn1c2c(-c3cnn(C)c3)cc(Br)cc2c2ccnc(C)c21 [Example 209, 6-Bromo-9-ethyl-1-methyl-8-(1-methyl-1H-pyrazol-4-yl)-9H-pyrido[3,4-b]indole] | 5.59 | > 200 | 6.55 | > 80
Cc1nccc2c1[nH]c1c(-c3cccc(C(=O)NCCN(C)C)c3)cc(Cl)cc12 [Example 265, 3-(6-Chloro-1-methyl-9H-pyrido[3,4-b]indol-8-yl)-N-(2-dimethylamino-ethyl)-benzamide] | 5.42 | < 40 | < 5.96 | < 20
Cc1nccc2c1[nH]c1c(-c3ccc4c(c3)CC(C)(C)O4)cc(Cl)cc12 [Example 236, 6-Chloro-8-(2,2-dimethyl-2,3-dihydro-benzofuran-5-yl)-1-methyl-9H-pyrido[3,4-b]indole] | 5.34 | > 200 | < 5.48 | < 20
Cc1nccc2c1[nH]c1c(-c3ccc(OCc4nccc5ccccc45)cc3)cc(Cl)cc12 [Example 270, 6-Chloro-8-[4-(isoquinolin-1-ylmethoxy)-phenyl]-1-methyl-9H-pyrido[3,4-b]indole] | 5.37 | 40 to 100 | < 5.96 | 20 to 50
Cc1nccc2c1[nH]c1c(-c3ccc4c(c3)CCCO4)cc(Cl)cc12 [Example 184, 6-Chloro-8-chroman-6-yl-1-methyl-9H-pyrido[3,4-b]indole] | 5.72 | 40 to 100 | 5.52 | 50 to 80
COCc1cc(-c2cc(Cl)cc3c2[nH]c2c(C)nccc23)ccc1OC [Example 200, 6-Chloro-8-(4-methoxy-3-methoxymethyl-phenyl)-1-methyl-9H-pyrido[3,4-b]indole] | 5.36 | 100 to 200 | < 5.00 | 20 to 50
Cc1nccc2c1[nH]c1c(-c3cnccc3Cl)cc(Cl)cc12 [Example 97, 6-Chloro-8-(4-chloro-pyridin-3-yl)-1-methyl-9H-pyrido[3,4-b]indole] | 5.29 | > 200 | < 5.96 | < 20
CCc1cc2c([nH]c3c(-c4ccc(OCCn5cccn5)cc4)cc(Br)cc32)c(C)n1 [Example 212, 6-Bromo-3-ethyl-1-methyl-8-[4-(2-pyrazol-1-yl-ethoxy)-phenyl]-9H-pyrido[3,4-b]indole] | 5.05 | < 40 | < 5.48 | < 20
CCn1c2c(-c3ccc(OCC4(C)COC4)cc3)cc(Cl)cc2c2ccnc(C)c21 [Example 256, 6-Chloro-9-ethyl-1-methyl-8-[4-(3-methyl-oxetan-3-ylmethoxy)-phenyl]-9H-pyrido[3,4-b]indole] | 5.89 | > 200 | 6.80 | > 80
Cc1nccc2c1[nH]c1c(-c3ccc(CN)cc3)cc(Cl)cc12 [Example 241, 4-(6-Chloro-1-methyl-9H-pyrido[3,4-b]indol-8-yl)-benzylamine] | 5.82 | 100 to 200 | < 5.96 | 20 to 50
CCn1c2cnccc2c2cc(Cl)cc(-c3ccc(Cl)nc3Cl)c21 [Example 55, 6-Chloro-8-(2,6-dichloro-pyridin-3-yl)-9-ethyl-9H-pyrido[3,4-b]indole] | 6.02 | 100 to 200 | 6.19 | > 80
Cc1nccc2c1[nH]c1c(-c3cccc(C(O)c4ccccn4)c3)cc(Cl)cc12 (centres unmarked) [Example 258, [3-(6-Chloro-1-methyl-9H-pyrido[3,4-b]indol-8-yl)-phenyl]-pyridin-2-yl-methanol] | 5.09 | 40 to 100 | < 5.48 | < 20
COc1ccc(-c2cc(Cl)cc3c2[nH]c2c(C)nccc23)cc1Cl [Example 206, 6-Chloro-8-(3-chloro-4-methoxy-phenyl)-1-methyl-9H-pyrido[3,4-b]indole] | 4.72 | < 40 | < 5.00 | 20 to 50
Cc1nccc2c1[nH]c1c(-c3cccc(N4CCOCC4)c3)cc(Cl)cc12 [Example 247, 6-Chloro-1-mehtyl-8-(3-morpholin-4-yl-phenyl)-9H-pyrido[3,4-b]indole] | 5.42 | > 200 | < 5.48 | < 20
CCn1c2c(-c3cnn(Cc4cccnc4)c3)cc(Cl)cc2c2ccnc(C)c21 [Example 116, 6-Chloro-9-ethyl-1-methyl-8-(1-pyridin-3-ylmethyl-1H-pyrazol-4-yl)-9H-pyrido[3,4-b]indole] | 5.89 | 100 to 200 | 6.41 | > 80
CCn1c2c(-c3cnn(Cc4cccnc4)c3)cc(Br)cc2c2ccnc(C)c21 [Example 5, 6-Bromo-9-ethyl-1-methyl-8-(1-pyridin-3-ylmethyl-1H-pyrazol-4-yl)-9H-pyrido[3,4-b]indole] | 5.89 | > 200 | 6.31 | > 80
Cc1nccc2c1[nH]c1c(-c3ccc(C(=O)NCCN(C)C)cc3)cc(Cl)cc12 [Example 264, 4-(6-Chloro-1-methyl-9H-pyrido[3,4-b]indol-8-yl)-N-(2-dimethylamino-ethyl)-benzamide] | 5.82 | 40 to 100 | < 5.96 | 20 to 50
Cc1nccc2c1[nH]c1c(-c3ccc(OCC4CCN(C)C4)cc3)cc(Cl)cc12 (centres unmarked) [Example 228, 6-Chloro-1-methyl-8-[4-(1-methyl-pyrrolidin-3-ylmethoxy)-phenyl]-9H-pyrido[3,4-b]indole] | 6.85 | 100 to 200 | 6.82 | 50 to 80
COc1cc(-c2cc(Cl)cc3c2[nH]c2c(C)nccc23)ccc1OCc1cccc(F)n1 [Example 223, 6-Chloro-8-[4-(6-fluoro-pyridin-2-ylmethoxy)-3-methoxy-phenyl]-1-methyl-9H-pyrido[3,4-b]indole] | 4.57 | < 40 | < 5.48 | 20 to 50
